Holding throughout (experiment): NCI anticancer screen, dose series, 48 h
For assay [1], the system named is BT-549.
Assay [2] concerns EKVX.
Assay [3] has as its system HCC 2998.
The test system of assay [4] is HCT-116.
The test system of assay [5] is Hs-578T.
Assay [6] relates to IGROV-1.
For assay [7], the system named is KM12.
The test system of assay [8] is MDA-MB-435.
The subject of assay [9] is NCI-H460.
The test system of assay [10] is OVCAR-3.
The subject of assay [11] is OVCAR-4.
For assay [12], the system named is OVCAR-5.
Assay [13] has as its system PC-3.
Assay [14] deals with RXF 393.
Assay [15] deals with SK-MEL-5.
Assay [16] concerns SK-OV-3.
The test system of assay [17] is SN12C.
Assay [18] deals with SNB-19.
In assay [19] the test system is SR.
The subject of assay [20] is UACC-62.

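Values below derive from 48-hour exposures of cells grown in 96-well plates, with endpoints linearly interpolated between the two concentrations bracketing the appropriate inhibition level. GI50: concentration for 50% inhibition of growth.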 Activity calls are given as the source filed them. Cut-off read from the data, not from the text of the source: active = GI50 up to about 1.1 µM and inactive = higher. Where only a bound is given, the exact number is not on record here.

For `O=C(O)c1ccc(Cc2ccccc2C(=O)O)cc1`, the GI50 in [1], in assay [2], in [3], in [4], in assay [5] and in assay [6] was > 100 µM (inactive) throughout. Also, the GI50 in assay [7], in assay [8], in [9], in assay [10], in assay [11] and in [12] was > 100 µM (inactive) in each case. The GI50 in assay [13], in assay [14], in [15], in assay [16], in assay [17] and in assay [18] was > 100 µM (inactive) in each case. For the same molecule, the GI50 in assay [19] and in assay [20] was > 100 µM (inactive) each time.
Regarding `CCOC(=O)c1nc2cc(C(F)(F)F)ccc2nc1Nc1ccc(Cl)c(Cl)c1`, the GI50 in assay [1] was 86.3 µM (inactive); in assay [2], > 100 µM (inactive); in [3], 69.3 µM (inactive); in [4], 69.7 µM (inactive); in assay [5], > 100 µM (inactive); in assay [6], > 100 µM (inactive). Besides, the GI50 in assay [7] was 65 µM (inactive); in [8], 62.7 µM (inactive); in [9], 35.3 µM (inactive); in assay [10], > 100 µM (inactive); in assay [11] it was 97.5 µM (inactive); in assay [12] it was > 100 µM (inactive). For the same molecule, the GI50 in assay [13] was 75.2 µM (inactive); in assay [14], > 100 µM (inactive); in [15] it was > 100 µM (inactive); in assay [16] it was 97.9 µM (inactive); in [17], > 100 µM (inactive); in assay [18] it was > 100 µM (inactive). Moreover, the GI50 was 49.9 µM (inactive) in assay [19] and > 100 µM (inactive) in assay [20].
With `CCC(Nc1ncnc2nc[nH]c12)C(=O)O` (stereo not given), the GI50 in [1], in [2], in assay [3], in [4], in assay [5] and in [6] was > 100 µM (inactive) throughout. The GI50 in assay [7], in assay [8], in assay [9], in assay [10], in assay [11] and in [12] was > 100 µM (inactive) each time. Besides, the GI50 in assay [13], in assay [14], in [15], in [16], in assay [17] and in assay [18] was > 100 µM (inactive) throughout. For the same molecule, the GI50 in [19] and in assay [20] was > 100 µM (inactive) throughout.
Turning to `COC12COC(=O)C1C(c1ccc3c(c1)OCO3)c1cc3c(cc1O2)OCO3` (stereo not given), the GI50 in assay [1] was 15.6 µM (inactive); in assay [2], 37.1 µM (inactive); in [3] it was 15.6 µM (inactive); in assay [4], 11.1 µM (inactive); in [5], 19.5 µM (inactive); in assay [6], 20.8 µM (inactive). Besides, the GI50 in assay [7] was 7.91 µM (inactive); in assay [8], 2.72 µM (inactive); in assay [9] it was 10.5 µM (inactive); in assay [10], 9.62 µM (inactive); in [11] it was 36.5 µM (inactive); in [12], > 73.1 µM (inactive). The GI50 in [13] is 12.6 µM (inactive); in assay [14], 10.3 µM (inactive); in [15] it was 11.2 µM (inactive); in assay [16] it was 14.2 µM (inactive); in [17], 40 µM (inactive); in assay [18], 54.1 µM (inactive). Besides, the GI50 in assay [19] is 5.38 µM (inactive); in [20], 15.8 µM (inactive).
Take `C=C(Br)C(C)(Br)CCC(Br)C(C)(C)Cl` (stereo not given): the GI50 was 23.8 µM (inactive) in assay [1]; 22.8 µM (inactive) in [2]; 17.4 µM (inactive) in [3]; 11.7 µM (inactive) in [4]; 26.4 µM (inactive) in assay [5]; 13.6 µM (inactive) in [6]. The GI50 in assay [7] is 16.6 µM (inactive); in [8], 19.4 µM (inactive); in [9] it was 18.3 µM (inactive); in [10], 18.6 µM (inactive); in assay [11] it was 18.9 µM (inactive); in assay [12], 18.8 µM (inactive). In addition, the GI50 in assay [13] is 20.4 µM (inactive); in assay [14], 20 µM (inactive); in assay [15], 17.2 µM (inactive); in [16], 27.8 µM (inactive); in [17] it was 20.2 µM (inactive); in assay [18], 18.8 µM (inactive). Besides, the GI50 in [19] is 3.5 µM (inactive); in [20], 20.4 µM (inactive).
As for `Cn1c(-c2ccc[se]2)ccc1-c1ccc(CO)[se]1`, the GI50 in assay [1] is 27.7 µM (inactive); in [2], 32.7 µM (inactive); in assay [3] it was 0.792 µM (active); in assay [4], 0.826 µM (active); in [5], 33 µM (inactive); in [6], < 0.01 µM (active). In addition, the GI50 in assay [7] is 32.1 µM (inactive); in [8], 17.3 µM (inactive); in assay [9], 0.0206 µM (active); in [10], 0.0348 µM (active); in [11], 0.0392 µM (active); in [12], < 0.0209 µM (active). Further, the GI50 was 42.5 µM (inactive) in [13]; 0.239 µM (active) in [14]; 24.9 µM (inactive) in [15]; 17.1 µM (inactive) in assay [16]; > 76.6 µM (inactive) in [17]; > 46.5 µM (inactive) in [18]. Also, the GI50 in assay [19] was 10.4 µM (inactive); in [20], 0.045 µM (active).
On to `CCCCCCCC(=O)N1C2CC3CCC2(CS1(=O)=O)C3(C)C` (stereo not given), for which the GI50 in assay [1] was 26.4 µM (inactive); in assay [2] it was 37.4 µM (inactive); in [3], 24.7 µM (inactive); in assay [4], 30.1 µM (inactive); in assay [5], 15.6 µM (inactive); in assay [6], 43.2 µM (inactive). Further, the GI50 in [7] is 26.2 µM (inactive); in assay [8], 31.4 µM (inactive); in assay [9], 30.1 µM (inactive); in assay [10] it was > 10 µM (inactive); in [11] it was 32.7 µM (inactive); in assay [12], 44.8 µM (inactive). Also, the GI50 in [13] is 23.7 µM (inactive); in assay [14] it was 13.3 µM (inactive); in [15] it was 18.2 µM (inactive); in assay [16], 46.8 µM (inactive); in [17], 20.9 µM (inactive); in assay [18], 26 µM (inactive). The GI50 in assay [19] was 18.6 µM (inactive); in assay [20] it was 22.8 µM (inactive).
Take `CC12OC(=O)[C@@]3(O)CCC4C(C[C@H]5O[C@]56CC=CC(=O)[C@]46C)C45OC[C@H]6C(=O)O[C@@H]1C[C@@]6(C)[C@H](C4=O)C23O5` (stereo not given in full): the GI50 in [1] was 0.818 µM (active); in assay [2] it was 3.28 µM (inactive); in assay [3], 3.12 µM (inactive); in assay [4], 1.33 µM (inactive); in [5], 5.47 µM (inactive); in assay [6], 1.24 µM (inactive). The GI50 in assay [7] is 1.85 µM (inactive); in [8], 1.42 µM (inactive); in assay [9] it was 1.94 µM (inactive); in assay [10] it was 0.676 µM (active); in assay [11], 2.01 µM (inactive); in assay [12], 3.34 µM (inactive). For the same molecule, the GI50 in assay [13] is 3.13 µM (inactive); in [14], 0.39 µM (active); in [15], 1.53 µM (inactive); in assay [16], 5.53 µM (inactive); in assay [17], 0.953 µM (active); in assay [18] it was 3.85 µM (inactive). For the same molecule, the GI50 in assay [19] is 0.392 µM (active); in assay [20] it was 0.971 µM (active).
On to `O=C(NC(=O)c1ccccc1[N+](=O)[O-])Nc1ccc(Oc2ncc(Br)cn2)c(Cl)c1`, for which the GI50 in assay [1] is 0.0703 µM (active); in assay [2], 0.0348 µM (active); in assay [3], 0.0875 µM (active); in assay [4] it was 0.0255 µM (active); in assay [5], 0.0342 µM (active); in assay [6], 0.0258 µM (active). Also, the GI50 in [7] is 0.023 µM (active); in assay [8], 0.00802 µM (active); in assay [9], 0.0252 µM (active); in [10] it was 0.0252 µM (active); in assay [11], 0.0284 µM (active); in assay [12], 0.0207 µM (active). For the same molecule, the GI50 is 0.029 µM (active) in assay [13]; 0.00771 µM (active) in assay [14]; 0.0224 µM (active) in assay [15]; 0.0269 µM (active) in assay [16]; 0.0398 µM (active) in [17]; 0.0278 µM (active) in assay [18]. Also, the GI50 in assay [19] is 0.0296 µM (active); in assay [20], 0.019 µM (active).
With `C[N+]1(C)C/C(=C\C=C\c2ccccc2)C(=O)/C(=C/C=C/c2ccccc2)C1`, the GI50 in assay [1] is 1.92 µM (inactive); in [2], 45.1 µM (inactive); in assay [3] it was 8.55 µM (inactive); in assay [4], 9.48 µM (inactive); in [5], 4.29 µM (inactive); in assay [6], 2.99 µM (inactive). Also, the GI50 was 2.93 µM (inactive) in assay [7]; 4.28 µM (inactive) in [8]; 17.1 µM (inactive) in assay [9]; 8.61 µM (inactive) in assay [10]; 42.7 µM (inactive) in assay [11]; 24.3 µM (inactive) in assay [12]. Moreover, the GI50 in assay [13] is 10.4 µM (inactive); in [14], 21.5 µM (inactive); in [15] it was 6.24 µM (inactive); in assay [16] it was 37.7 µM (inactive); in assay [17], 7.69 µM (inactive); in assay [18] it was 6.08 µM (inactive). In addition, the results for the GI50 in [19] and in assay [20] were 3.1 µM (inactive) and 3.46 µM (inactive), respectively.

The values are drawn from ChEMBL document CHEMBL1201862, “PubChem BioAssay data set” (2004).
